Results: ChEMBL document CHEMBL5678818, “Discovery of potent SOS1 inhibitors that block RAS activation via disruption of the RAS-SOS1 interaction” (Proc Natl Acad Sci U S A, 2019)

Key:
[1] = molecular target: Mitogen-activated protein kinase 7 (Homo sapiens) (UniProt Q13164); test: Inhibition of ERK5 (unknown origin) assessed as residual activity at 1000 nM by KINOMEscan analysis relative to control
[2] = tested on: Hepatocyte growth factor receptor (Homo sapiens), P08581 [Y1235D]; test: Inhibition of MET Y1235D mutant (unknown origin) assessed as residual activity at 1000 nM by KINOMEscan analysis relative to control
[3] = molecular target: Serine/threonine-protein kinase SIK1 (Homo sapiens) (UniProt P57059); test: Inhibition of SIK (unknown origin) assessed as residual activity at 1000 nM by KINOMEscan analysis relative to control
Sequence of Serine/threonine-protein kinase SIK1 (Homo sapiens) (P57059 whole entry): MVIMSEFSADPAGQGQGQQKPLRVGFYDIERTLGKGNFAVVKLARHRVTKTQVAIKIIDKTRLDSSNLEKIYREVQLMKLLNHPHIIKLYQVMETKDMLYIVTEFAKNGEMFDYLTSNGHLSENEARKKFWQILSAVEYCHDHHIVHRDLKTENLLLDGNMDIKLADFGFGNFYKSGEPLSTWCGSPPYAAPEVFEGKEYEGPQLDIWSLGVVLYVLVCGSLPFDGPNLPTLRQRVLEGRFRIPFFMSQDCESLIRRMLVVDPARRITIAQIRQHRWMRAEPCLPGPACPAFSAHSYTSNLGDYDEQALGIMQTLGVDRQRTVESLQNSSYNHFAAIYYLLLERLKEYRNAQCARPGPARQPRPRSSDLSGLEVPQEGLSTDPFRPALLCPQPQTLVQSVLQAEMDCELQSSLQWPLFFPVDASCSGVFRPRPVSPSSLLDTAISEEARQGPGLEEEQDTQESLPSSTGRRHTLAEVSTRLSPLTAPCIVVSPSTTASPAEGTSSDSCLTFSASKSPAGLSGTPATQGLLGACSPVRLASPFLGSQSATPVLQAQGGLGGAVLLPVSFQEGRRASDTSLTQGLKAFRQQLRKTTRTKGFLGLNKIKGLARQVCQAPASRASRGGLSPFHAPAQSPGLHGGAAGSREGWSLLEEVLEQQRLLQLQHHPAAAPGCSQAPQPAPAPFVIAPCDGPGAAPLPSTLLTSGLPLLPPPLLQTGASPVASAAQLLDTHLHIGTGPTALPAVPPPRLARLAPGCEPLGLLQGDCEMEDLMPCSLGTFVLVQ

[4] = molecular target: T1, Serine/threonine-protein kinase DCLK1 (Homo sapiens) (UniProt O15075); test: Inhibition of DCAMKL1 (unknown origin) assessed as residual activity at 1000 nM by KINOMEscan analysis relative to control
T1 sequence (whole entry): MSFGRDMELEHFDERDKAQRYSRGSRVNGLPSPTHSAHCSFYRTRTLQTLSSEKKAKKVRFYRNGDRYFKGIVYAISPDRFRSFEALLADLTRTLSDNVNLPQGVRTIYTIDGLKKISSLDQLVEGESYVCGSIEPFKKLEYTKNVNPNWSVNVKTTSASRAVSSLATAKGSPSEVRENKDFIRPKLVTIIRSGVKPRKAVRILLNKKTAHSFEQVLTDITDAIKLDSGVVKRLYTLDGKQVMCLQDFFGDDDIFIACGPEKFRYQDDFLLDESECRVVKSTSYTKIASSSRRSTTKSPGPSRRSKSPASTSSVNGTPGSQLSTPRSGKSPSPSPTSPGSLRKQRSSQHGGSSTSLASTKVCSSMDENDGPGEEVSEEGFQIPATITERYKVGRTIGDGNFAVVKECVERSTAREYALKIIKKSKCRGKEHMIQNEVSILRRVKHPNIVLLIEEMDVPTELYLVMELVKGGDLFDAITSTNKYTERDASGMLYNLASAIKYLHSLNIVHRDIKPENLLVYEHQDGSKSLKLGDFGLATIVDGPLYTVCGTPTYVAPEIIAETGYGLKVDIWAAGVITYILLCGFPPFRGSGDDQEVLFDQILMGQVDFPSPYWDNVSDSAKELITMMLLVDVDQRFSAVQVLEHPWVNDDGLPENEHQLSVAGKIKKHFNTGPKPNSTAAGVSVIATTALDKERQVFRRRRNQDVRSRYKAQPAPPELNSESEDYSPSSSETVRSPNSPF

[5] = molecular target: Mitogen-activated protein kinase kinase kinase kinase 5 (Homo sapiens) (UniProt Q9Y4K4); test: Inhibition of MAP4K5 (unknown origin) assessed as residual activity at 1000 nM by KINOMEscan analysis relative to control
Sequence of Mitogen-activated protein kinase kinase kinase kinase 5 (Homo sapiens) (Q9Y4K4 whole entry, looked up): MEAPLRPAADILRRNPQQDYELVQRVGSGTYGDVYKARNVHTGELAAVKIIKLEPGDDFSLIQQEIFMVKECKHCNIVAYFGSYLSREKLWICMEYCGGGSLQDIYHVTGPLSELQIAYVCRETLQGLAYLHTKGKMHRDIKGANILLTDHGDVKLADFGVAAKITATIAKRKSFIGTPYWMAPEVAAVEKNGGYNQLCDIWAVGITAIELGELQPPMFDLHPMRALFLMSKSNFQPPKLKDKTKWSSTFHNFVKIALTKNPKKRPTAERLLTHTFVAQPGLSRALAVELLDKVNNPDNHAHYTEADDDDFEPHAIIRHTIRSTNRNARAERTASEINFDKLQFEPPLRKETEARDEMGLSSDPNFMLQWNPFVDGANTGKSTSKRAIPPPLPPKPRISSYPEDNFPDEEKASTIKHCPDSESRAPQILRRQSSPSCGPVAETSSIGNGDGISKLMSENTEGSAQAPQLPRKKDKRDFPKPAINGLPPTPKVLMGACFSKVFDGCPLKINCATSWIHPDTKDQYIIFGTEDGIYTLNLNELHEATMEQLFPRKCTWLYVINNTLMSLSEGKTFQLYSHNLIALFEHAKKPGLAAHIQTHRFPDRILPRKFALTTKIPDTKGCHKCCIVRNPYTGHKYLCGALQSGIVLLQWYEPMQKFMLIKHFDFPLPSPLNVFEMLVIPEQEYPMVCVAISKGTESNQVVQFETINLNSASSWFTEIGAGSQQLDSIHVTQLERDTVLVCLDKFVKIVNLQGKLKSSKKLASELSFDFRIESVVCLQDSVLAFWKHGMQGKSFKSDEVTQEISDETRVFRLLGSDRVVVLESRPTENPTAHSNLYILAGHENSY

[6] = molecular target: Cyclin-dependent kinase 11B (Homo sapiens) (UniProt P21127); test: Inhibition of CDC2L1 (unknown origin) assessed as residual activity at 1000 nM by KINOMEscan analysis relative to control
Sequence of Cyclin-dependent kinase 11B (Homo sapiens) (P21127 whole entry): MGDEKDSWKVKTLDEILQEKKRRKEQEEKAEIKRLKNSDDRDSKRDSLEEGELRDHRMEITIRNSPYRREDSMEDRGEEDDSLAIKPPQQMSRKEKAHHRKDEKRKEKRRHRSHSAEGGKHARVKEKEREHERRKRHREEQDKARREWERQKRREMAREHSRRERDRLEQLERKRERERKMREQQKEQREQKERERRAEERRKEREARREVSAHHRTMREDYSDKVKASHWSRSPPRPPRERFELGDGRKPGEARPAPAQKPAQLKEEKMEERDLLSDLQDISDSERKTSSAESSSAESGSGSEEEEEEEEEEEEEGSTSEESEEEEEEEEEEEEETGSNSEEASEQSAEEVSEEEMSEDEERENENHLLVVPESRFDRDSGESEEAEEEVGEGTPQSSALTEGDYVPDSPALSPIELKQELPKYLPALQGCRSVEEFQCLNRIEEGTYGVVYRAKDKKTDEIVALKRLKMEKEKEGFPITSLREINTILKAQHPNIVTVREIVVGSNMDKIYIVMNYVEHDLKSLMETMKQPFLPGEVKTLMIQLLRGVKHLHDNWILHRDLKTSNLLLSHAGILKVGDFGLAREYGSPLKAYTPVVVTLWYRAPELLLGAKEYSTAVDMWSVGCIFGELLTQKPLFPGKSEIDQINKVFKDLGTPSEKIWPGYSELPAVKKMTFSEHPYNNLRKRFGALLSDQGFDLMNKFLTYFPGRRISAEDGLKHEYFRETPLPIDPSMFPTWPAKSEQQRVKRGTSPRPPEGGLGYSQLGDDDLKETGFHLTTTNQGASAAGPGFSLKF

[7] = molecular target: Tyrosine-protein kinase Srms (Homo sapiens) (UniProt Q9H3Y6); test: Inhibition of SRMS (unknown origin) assessed as residual activity at 1000 nM by KINOMEscan analysis relative to control
Sequence of Tyrosine-protein kinase Srms (Homo sapiens) (Q9H3Y6 whole entry): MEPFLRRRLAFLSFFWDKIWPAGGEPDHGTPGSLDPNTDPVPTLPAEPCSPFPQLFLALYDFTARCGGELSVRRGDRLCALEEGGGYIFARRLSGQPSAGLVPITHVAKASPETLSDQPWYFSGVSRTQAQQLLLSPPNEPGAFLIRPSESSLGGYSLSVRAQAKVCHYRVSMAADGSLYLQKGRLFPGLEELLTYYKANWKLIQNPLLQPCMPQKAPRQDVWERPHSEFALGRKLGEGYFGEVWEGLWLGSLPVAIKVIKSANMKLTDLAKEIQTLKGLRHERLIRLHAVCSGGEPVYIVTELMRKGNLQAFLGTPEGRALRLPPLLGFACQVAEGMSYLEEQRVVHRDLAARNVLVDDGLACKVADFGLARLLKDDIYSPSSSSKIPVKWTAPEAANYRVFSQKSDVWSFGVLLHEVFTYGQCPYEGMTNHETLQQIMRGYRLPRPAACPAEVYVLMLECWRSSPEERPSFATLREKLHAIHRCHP

[8] = molecular target: T2, Receptor-interacting serine/threonine-protein kinase 4 (Homo sapiens) (UniProt P57078); test: Inhibition of RIPK4 (unknown origin) assessed as residual activity at 1000 nM by KINOMEscan analysis relative to control
T2 sequence (whole entry): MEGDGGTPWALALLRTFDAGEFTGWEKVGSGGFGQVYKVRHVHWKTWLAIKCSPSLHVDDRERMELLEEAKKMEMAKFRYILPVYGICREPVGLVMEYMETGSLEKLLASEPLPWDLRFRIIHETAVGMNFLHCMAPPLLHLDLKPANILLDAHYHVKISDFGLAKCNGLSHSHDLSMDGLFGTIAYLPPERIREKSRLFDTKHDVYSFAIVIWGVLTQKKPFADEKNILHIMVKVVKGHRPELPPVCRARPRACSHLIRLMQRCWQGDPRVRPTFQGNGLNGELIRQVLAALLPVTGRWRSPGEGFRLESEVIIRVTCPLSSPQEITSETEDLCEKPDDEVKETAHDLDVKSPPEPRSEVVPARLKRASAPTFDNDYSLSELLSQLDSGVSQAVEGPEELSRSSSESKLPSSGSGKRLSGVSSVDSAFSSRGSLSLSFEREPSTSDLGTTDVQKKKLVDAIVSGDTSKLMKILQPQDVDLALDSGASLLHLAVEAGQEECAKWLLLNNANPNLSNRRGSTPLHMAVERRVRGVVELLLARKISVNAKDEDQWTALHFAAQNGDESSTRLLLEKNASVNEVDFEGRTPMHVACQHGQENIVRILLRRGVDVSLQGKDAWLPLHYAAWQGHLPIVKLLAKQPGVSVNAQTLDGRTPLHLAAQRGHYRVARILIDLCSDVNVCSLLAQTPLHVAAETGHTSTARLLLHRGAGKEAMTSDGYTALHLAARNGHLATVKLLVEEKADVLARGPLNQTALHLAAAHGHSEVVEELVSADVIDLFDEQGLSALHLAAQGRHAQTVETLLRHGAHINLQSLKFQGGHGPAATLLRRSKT

[9] = molecular target: Dual specificity tyrosine-phosphorylation-regulated kinase 1B (Homo sapiens) (UniProt Q9Y463); test: Inhibition of DYRK1B (unknown origin) assessed as residual activity at 1000 nM by KINOMEscan analysis relative to control
Sequence of Dual specificity tyrosine-phosphorylation-regulated kinase 1B (Homo sapiens) (Q9Y463 whole entry, looked up): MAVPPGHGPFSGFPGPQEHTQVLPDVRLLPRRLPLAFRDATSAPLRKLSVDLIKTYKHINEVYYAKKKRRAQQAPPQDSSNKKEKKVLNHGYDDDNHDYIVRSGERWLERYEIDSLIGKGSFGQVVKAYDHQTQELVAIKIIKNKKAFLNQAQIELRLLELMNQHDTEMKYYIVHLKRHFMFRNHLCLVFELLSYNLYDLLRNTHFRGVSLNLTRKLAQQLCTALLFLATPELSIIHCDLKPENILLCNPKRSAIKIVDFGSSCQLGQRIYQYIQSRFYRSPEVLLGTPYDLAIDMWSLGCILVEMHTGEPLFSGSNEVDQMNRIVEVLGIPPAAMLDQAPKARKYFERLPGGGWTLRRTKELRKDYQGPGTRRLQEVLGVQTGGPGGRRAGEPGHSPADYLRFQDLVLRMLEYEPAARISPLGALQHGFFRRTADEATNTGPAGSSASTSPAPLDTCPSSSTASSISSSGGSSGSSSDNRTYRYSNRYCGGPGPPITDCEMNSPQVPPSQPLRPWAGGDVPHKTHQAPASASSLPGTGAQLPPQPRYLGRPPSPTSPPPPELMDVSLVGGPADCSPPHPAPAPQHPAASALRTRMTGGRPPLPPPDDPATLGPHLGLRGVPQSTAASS

Sequence of Mitogen-activated protein kinase 7 (Homo sapiens) (Q13164 2-816 limits assumed): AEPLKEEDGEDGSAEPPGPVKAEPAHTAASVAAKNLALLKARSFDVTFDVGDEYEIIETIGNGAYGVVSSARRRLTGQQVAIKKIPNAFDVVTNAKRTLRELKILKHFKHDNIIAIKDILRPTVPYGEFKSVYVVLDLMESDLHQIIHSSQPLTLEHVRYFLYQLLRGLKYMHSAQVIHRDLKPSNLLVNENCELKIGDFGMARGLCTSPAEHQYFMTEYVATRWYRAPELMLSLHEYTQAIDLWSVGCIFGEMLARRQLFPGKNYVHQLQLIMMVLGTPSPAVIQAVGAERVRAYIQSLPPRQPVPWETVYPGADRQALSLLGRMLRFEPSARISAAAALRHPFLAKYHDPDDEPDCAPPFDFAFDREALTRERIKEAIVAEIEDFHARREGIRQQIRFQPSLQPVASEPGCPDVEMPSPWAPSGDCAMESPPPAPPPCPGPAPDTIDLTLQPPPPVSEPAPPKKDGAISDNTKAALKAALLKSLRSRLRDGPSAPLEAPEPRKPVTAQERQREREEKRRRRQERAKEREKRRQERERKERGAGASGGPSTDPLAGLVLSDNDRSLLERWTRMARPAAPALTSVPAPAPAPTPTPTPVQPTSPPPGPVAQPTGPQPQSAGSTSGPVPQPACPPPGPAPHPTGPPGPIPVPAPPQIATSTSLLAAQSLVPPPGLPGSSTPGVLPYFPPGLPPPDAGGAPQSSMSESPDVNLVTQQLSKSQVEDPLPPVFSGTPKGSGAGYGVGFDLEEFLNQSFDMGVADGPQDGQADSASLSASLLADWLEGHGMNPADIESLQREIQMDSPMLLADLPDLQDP

SMILES	Activity [1] [%]	Activity [2] [%]	Activity [3] [%]	Activity [4] [%]	Activity [5] [%]	Activity [6] [%]	Activity [7] [%]	Activity [8] [%]	Activity [9] [%]
COc1cc2nc(C)nc(N[C@H](C)c3cccc(-c4cn[nH]c4)c3)c2cc1OC	69	78	65	64	96	94	87	70	100
COc1cc2ncnc(N[C@H](C)c3cccc4ccccc34)c2cc1OC	91	100	98	76	100	83	83	93	50
